Measured values published in patent publication US6613553B1, “Enoyl reductases and methods of use thereof” (priority 2000, dated 2003).
Converted amounts (≈) assume the structure as drawn. “Also recorded” adds a separate entry of the source. Like-named read-outs stand apart in the source and are kept apart here.

Legend:
FabK = FabK (Streptococcus pneumoniae, UniProt Q9FBC5); assay type: biochemical
Procedure: A coupled enzyme system was employed to assay FabK by combining the purified E. coli proteins required to reconstitute a cycle of fatty acid synthesis with the exception of the FabI enoyl-ACP reductase. Reaction mixtures were first incubated to generate trans-2-butenoyl-ACP and then the indicated amounts of FabK were added as described in the Example below. Products were separated by conformationally sensitive gel electrophoresis and the bands visualized and quantitated using a Phosphorimager (FIG. 2C).
Enzymatic Assays: A reaction mixture containing 100 μM ACP, 1 mM β-mercaptoethanol, 100 μM acetyl-CoA, 50 μM [2-^14C]malonyl-CoA (56 mCi/mmol), 200 μM NADPH, 200 μM NADH, and 12.5 μg/ml of each FabD, FabH, FabG, FabA and FabZ in 0.1 M sodium phosphate pH 7.0 was incubated at 37° C. for 30 min to generate the trans-2-enoyl-ACP substrate before being aliquoted into individual reaction tubes to which FabK was added to the final amount as indicated for the Figures, above. The final reaction volume was 40 μL. Reactions were then incubated for 30 min at 37° C. and were stopped by placing into an ice slurry. Gel loading buffer was added, and the entire sample was loaded onto a 13% polyacrylamide gel containing 0.5 M urea [Heath and Rock, J. Biol. Chem., 271:1833 (1996)]. […]

[1] = system: E. coli W3110/pBluescript; experiment: triclosan MIC on LB agar plates; assay type: cell-based; details: Escherichia coli; E. coli W3110/pBluescript (empty vector); no growth in at least three experiments
[2] = system: E. coli RJR108 (fabI[G93V]); experiment: triclosan MIC on LB agar plates; assay type: cell-based; details: Escherichia coli
E. coli W3110/pfabI = experiment: triclosan MIC on LB agar plates; assay type: cell-based; details: Escherichia coli; E. coli W3110/pfabI (His-tag E. coli FabI, multi-copy plasmid)
E. coli W3110/pfabK = experiment: triclosan MIC on LB agar plates; assay type: cell-based, Escherichia coli; details: for MIC: Escherichia coli
Procedure: FabI is the only enoyl reductase in E. coli and strain RJH13 harbors a fabI(Ts) allele and fails to grow at 42° C. [Heath et al., J. Biol. Chem., 273:30316 (1998)]. […] The pfabK plasmid was then introduced into the wild-type E. coli strain W3110. […] J. Infect. Control, 24:209 (1996)].

S. pneumoniae R6 = experiment: triclosan MIC on brain heart infusion plates; assay type: cell-based; details: Streptococcus pneumoniae
E. coli expressing FabL = details: FabL cloned from B. subtilis (ygaA)
Source text: However, such limited structural information alone cannot allow the identification since the overall identity of SDRs are low and the family size is large.

B. subtilis = details: cited from earlier work
P. aeruginosa = details: contains both FabI and FabK; cited from earlier work
[3] = molecular target: FabI protein from P. aeruginosa (Pseudomonas aeruginosa, UniProt Q9ZFE4); details: cited from earlier work
FabI[G93V] mutant = molecular target: T1, FabI[G93V] mutant (Escherichia coli, UniProt P0AEK4, G93V); details: fails to form high-affinity FabI-NAD+-triclosan ternary complex; cited from earlier work
T1 sequence (P0AEK4 1-262 G93V): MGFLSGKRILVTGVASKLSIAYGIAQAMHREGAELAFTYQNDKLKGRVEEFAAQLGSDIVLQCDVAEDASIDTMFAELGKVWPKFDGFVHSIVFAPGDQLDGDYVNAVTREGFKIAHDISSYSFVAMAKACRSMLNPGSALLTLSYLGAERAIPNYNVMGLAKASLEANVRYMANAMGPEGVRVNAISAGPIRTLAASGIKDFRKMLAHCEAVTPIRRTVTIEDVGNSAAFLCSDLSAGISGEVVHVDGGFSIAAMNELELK

Chain of FabK (Q9FBC5 entry or part of it): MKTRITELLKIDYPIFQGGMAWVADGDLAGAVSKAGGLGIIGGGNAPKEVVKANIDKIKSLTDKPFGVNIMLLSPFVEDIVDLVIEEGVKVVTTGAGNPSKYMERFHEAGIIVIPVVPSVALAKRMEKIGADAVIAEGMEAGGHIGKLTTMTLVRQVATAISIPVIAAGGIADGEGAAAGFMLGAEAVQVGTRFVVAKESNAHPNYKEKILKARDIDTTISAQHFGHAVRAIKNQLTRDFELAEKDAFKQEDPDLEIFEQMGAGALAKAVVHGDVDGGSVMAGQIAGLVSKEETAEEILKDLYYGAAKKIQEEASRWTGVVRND
Chain of FabI protein from P. aeruginosa (Q9ZFE4 whole entry): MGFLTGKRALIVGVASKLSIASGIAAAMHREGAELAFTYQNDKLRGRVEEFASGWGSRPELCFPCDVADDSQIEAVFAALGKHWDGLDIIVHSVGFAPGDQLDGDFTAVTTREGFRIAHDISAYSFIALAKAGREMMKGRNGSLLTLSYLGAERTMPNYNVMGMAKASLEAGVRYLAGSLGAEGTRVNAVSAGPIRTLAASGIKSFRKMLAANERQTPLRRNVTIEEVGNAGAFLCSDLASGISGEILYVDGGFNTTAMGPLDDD

With `Oc1cc(Cl)ccc1Oc1ccc(Cl)cc1Cl` [triclosan, 2,4,4′-Trichloro-2′-hydroxydiphenyl ether] the “inhibition of FabK activity in the in vitro assay” value (FabK) was “did not inhibit”, the MIC [1] was 0.25 µg/mL (≈ 0.863 µM) and the MIC [2] was 16 µg/mL (≈ 55.3 µM). For the same molecule, the MIC (E. coli W3110/pfabI) was 2 µg/mL (≈ 6.91 µM), the “triclosan resistance of E. coli expressing fabK” value (E. coli W3110/pfabK; E. coli with fabK expression) was “completely resistant; also recorded: complete triclosan resistance” and the MIC (E. coli W3110/pfabK; E. coli W3110/pfabK (His-tag S. pneumoniae FabK), read-out: MIC) was over 2000 µg/mL. The MIC (E. coli W3110/pfabK; pfabK plasmid in strain W3110, read-out: minimum inhibitory concentration (MIC)) was over 2000 µg/mL, the MIC (S. pneumoniae R6; R6, S. pneumoniae) was about 2 µg/mL (≈ 6.91 µM) and the MIC (S. pneumoniae R6; R6, S. pneumoniae R6, brain heart infusion plates) was 2 µg/mL (≈ 6.91 µM). For the same molecule, the “triclosan resistance of E. coli expressing FabL” value (E. coli expressing FabL) was “complete triclosan resistance”, the MIC (B. subtilis) was “about 2 μg/ml” and the “triclosan inhibition of P. aeruginosa” value (P. aeruginosa) was “completely refractory”. The “susceptibility of P. aeruginosa FabI to triclosan in vitro” value [3] was “highly susceptible” and the “inhibition of FabI[G93V] mutant by triclosan” value (FabI[G93V] mutant) was “still inhibited”.
